Laboratory results from patent publication US4677069A, “Clam derived proteinases” (priority 1984, dated 1987).
Where a name gives a salt, the structure may show the parent alone. *1 amine or outer side, *2 acyl side, *3 side chain or, on linkers, in order; H or OH if unused. Where a SMILES comes first, the peptide text is derived from it. [ ]: non-standard residue; d: D form. The star is where a group is joined. Sta = CC(C)C[C@H](N)[C@@H](O)CC(=O)O; Isovaleryl = CC(C)CC(=O)*; CO = O=C([*:1])[*:2]

B1: Gastricin: carboxyl proteinase, stomach (protein, UniProt P20142 60-388, looked up)
Gastricsin: SVTYEPMAYMDAAYFGEISIGTPPQNFLVLFDTGSSNLWVPSVYCQSQACTSHSRFNPSESSTYSTNGQTFSLQYGSGSLTGFFGYDTLTVQSIQVPNQEFGLSENEPGTNFVYAQFDGIMGLAYPALSVDEATTAMQGMVQEGALTSPVFSVYLSNQQGSSGGAVVFGGVDSSLYTGQIYWAPVTQELYWQIGIEEFLIGGQASGWCSEGCQAIVDTGTSLLTVPQQYMSALLQATGAQEDEYGQFLVNCNSIQNLPSLTFIINGVEFPLPPSSYILSNNGYCTVGVEPTYLSSQNGQPLWILGDVFLRSYYSVYDLGNNRVGFATAA

Key:
PI & II [1] = test: Inhibitor effect on proteolytic activity of PI & II; assay type: biochemical, surf clam, Spisula solidissima
Experimental: All inhibitors were from Sigma Co. (St. Louis, MO). The stock solutions were prepared by dissolving the inhibitors either in water or dimethyl sulfoxide (DMSO) as following:
(§1) Water--Leupeptin hemisulfate (60 ug/ml), Antipain (60 ug/ml), Poly-L-lysine(60 mg/ml), soybean trypsin inhibitor (60 mg/ml), ovomucoid trypsin inhibitor (60 mg/mL), Tosyl-lysine chloromethyl ketone (TLCK, 60 mM) and iodoacetamide (60 mM).
(§2) DMSO--Pepstatin (60 ug/ml), Tosyl-phenylalanine chloromethyl ketone (TPCK, 60 mM), Phenylmethanesulphonylfluoride (PMSF, 60 mM), and Diazoacetylnorleucine methyl ester (DNME, 60 mM).

PIII [2] = test: Inhibitor effect on proteolytic activity of PIII; assay type: biochemical, surf clam, Spisula solidissima
Experimental: The effect of inhibitors on proteolytic activity was determined by preincubating a mixture of inhibitor stock solution (0.05 ml), 0.2M citrate-phosphate buffer at pH 2.8 (1.7 ml) and enzyme solution (0.25 ml) for 10 min at room temperature before the addition of substrate. All inhibitors were from Sigma Co. (St. Louis, MO). The stock solutions were prepared by dissolving the inhibitors either in water or dimethyl sulfoxide (DMSO) as following:
as §1, §2

[3] = cited from earlier work; for Optimum pH: Table 7, literature
PI & II [4] = test: Heavy metal effect on proteolytic activity of PI & II; assay type: biochemical, surf clam, Spisula solidissima; conditions: for PI & II % Retention / PI & II Activity (HU/ml): metal ions 0.5 mM, pH 2.8; for PI & II Activity (HU/ml): control 214.7
Experimental: (§3) The effect of heavy metals on proteolytic activity was determined by preincubating a mixture of 5 mM heavy metal stock solution (0.3 ml), 0.2M citrate-phosphate buffer at pH 2.8 (1.6 ml) and enzyme solution (0.1 ml) at room temperature for 10 min before the addition of substrate. All stock solutions of metals were made from chloride salts, except that silver was prepared from the nitrate salt.

PIII [5] = test: Heavy metal effect on proteolytic activity of PIII; assay type: biochemical, surf clam, Spisula solidissima; conditions: for effect of metal ion on PIII: general assay procedure; for PIII % Retention / PIII Activity (HU/ml): metal ions 0.5 mM, pH 2.8; for PIII Activity (HU/ml): control 258.7
Experimental: as §3

P2.2 enzyme = test: Stabilization of P2.2 activity with reducing and chelating agents; conditions: EDTA or cysteine alone
[6] = 1 ug/ml, pH 2.8, 10 min preincubation

| Molecule | Optimum pH [3] | PI & II % Retention (PI & II [4]) [%] | PI & II Activity (HU/ml) (PI & II [4]) | PIII % Retention (PIII [5]) [%] | PIII Activity (HU/ml) (PIII [5]) | other results |
| --- | --- | --- | --- | --- | --- | --- |
| CC(=O)N[C@@H](CC(C)C)C(=O)N[C@@H](CC(C)C)C(=O)N[C@H](C=O)CCCNC(=N)N [Leupeptin hemisulfate] |  |  |  |  |  | % Residual activity PI & II, final conc. 1 ug/ml (PI & II [1]; [6]): 96.5%; effect of inhibitor on PIII (PIII [2]): inhibited; % Residual activity PIII, final conc. 1 ug/ml (PIII [2]; [6]): 33.4% |
| Cc1ccc(S(=O)(=O)NC(Cc2ccccc2)C(=O)CCl)cc1 (centres unmarked) [TPCK, tosylphenylalanine chloromethyl ketone] |  |  |  |  |  | % Residual activity PI & II, final conc. 1 mM (PI & II [1]; pH 2.8, 10 min preincubation): 96.4%; effect of inhibitor on PIII (PIII [2]): inhibited; % Residual activity PIII, final conc. 1 mM (PIII [2]; pH 2.8, 10 min preincubation): 21.2% |
| Poly-L-lysine |  |  |  |  |  | % Residual activity PI & II, final conc. 1 ug/ml (PI & II [1]; pH 2.8): 99.3%; % Residual activity PIII, final conc. 1 ug/ml (PIII [2]; pH 2.8): 101.1% |
| CC(C)CC(=O)N[C@H](C(=O)N[C@H](C(=O)N[C@@H](CC(C)C)[C@@H](O)CC(=O)N[C@@H](C)C(=O)N[C@@H](CC(C)C)[C@@H](O)CC(=O)O)C(C)C)C(C)C [Pepstatin] (Isovaleryl-VV[Sta]A[Sta]-OH) |  |  |  |  |  | effect of inhibitor on PI&II (PI & II [1]): strongly inhibited; % Residual activity PI & II, final conc. 1 ug/ml (PI & II [1]; [6]): 25.0%; % Residual activity PIII, final conc. 1 ug/ml (PIII [2]; [6]): 99.4% |
| Kallikrein | 8.6-8.8 |  |  |  |  |  |
| [Cu+2] [Cu++] |  | 95.7 | 205.4 | 18.0 | 46.7 | effect of cupric ion on PI&II at or below 1 mM (PI & II [4]; at or below 1 mM cupric ion): not sensitive; effect of cupric ion on PIII at 1 mM (PIII [5]; 1 mM cupric ion): Almost total inactivation; effect of metal ion on PIII (PIII [5]): very sensitive |
| [Co+2] [Co++] |  | 96.9 | 208.0 | 90.7 | 234.7 |  |
| [Ca+2] [Ca++] |  | 97.5 | 209.4 | 99.2 | 256.7 |  |
| [Hg+2] [Hg++] |  | 87.1 | 187.0 | 0.0 | 0.0 | effect of metal ion on PIII (PIII [5]): extremely sensitive |
| Renin | 5.5-8.0 |  |  |  |  |  |
| Cc1ccc(S(=O)(=O)NC(CCCCN)C(=O)CCl)cc1 (centres unmarked) [TLCK, tosyllysine chloromethyl ketone] |  |  |  |  |  | % Residual activity PI & II, final conc. 1 mM (PI & II [1]; pH 2.8, 10 min preincubation): 96.2%; effect of inhibitor on PIII (PIII [2]): inhibited; % Residual activity PIII, final conc. 1 mM (PIII [2]; pH 2.8, 10 min preincubation): 16.8% |
| [Sn+2] [Sn++] |  | 88.8 | 190.6 | 83.7 | 216.5 | effect of metal ion on PIII (PIII [5]): inhibits PIII slightly |
| Pepsin | 1.7-2.0 |  |  |  |  | General proteolysis ([3]; Table 7, graded + to +++, literature): ++ + |
| [Ag+] [Ag+] |  | 102.2 | 219.3 | 95.0 | 245.8 |  |
| CC(C)[C@H](NC(=O)[C@H](CCCNC(=N)N)NC(=O)N[C@@H](Cc1ccccc1)C(=O)O)C(=O)N[C@H](C=O)CCCNC(=N)N [Antipain di-HCl] ({Phe-CO}-Arg-Val-Arg-aldehyde) |  |  |  |  |  | % Residual activity PI & II, final conc. 1 ug/ml (PI & II [1]; [6]): 102.9%; % Residual activity PIII, final conc. 1 ug/ml (PIII [2]; [6]): 89.7% |
| [Cd+2] [Cd++] |  | 96.3 | 206.7 | 96.4 | 249.4 |  |
| O=C(O)CN(CCN(CC(=O)O)CC(=O)O)CC(=O)O [Na2 --EDTA] |  |  |  |  |  | optimum concentration for stabilizing P2.2, reagent alone (P2.2 enzyme): 10 mM |

| Molecule | Optimum pH [3] | PI & II % Retention (PI & II [4]) [%] | PI & II Activity (HU/ml) (PI & II [4]) | PIII % Retention (PIII [5]) [%] | PIII Activity (HU/ml) (PIII [5]) | other results |
| --- | --- | --- | --- | --- | --- | --- |
| NC(=O)CI [Iodoacetamide] |  |  |  |  |  | % Residual activity PI & II, final conc. 1 mM (PI & II [1]; pH 2.8, 10 min preincubation): 98.9%; effect of inhibitor on PIII (PIII [2]): inhibited; % Residual activity PIII, final conc. 1 mM (PIII [2]; pH 2.8, 10 min preincubation): 78.3% |
| Chymotrypsin | ~ 8.0 |  |  |  |  |  |
| Trypsin | ~ 8.0 |  |  |  |  |  |
| [Ni+2] [Ni++] |  | 96.0 | 206.0 | 92.5 | 239.4 |  |
| Cathepsin G | ~ 7.5 |  |  |  |  |  |
| O=S(=O)(F)Cc1ccccc1 [PMSF, phenylmethanesulphonylfluoride] |  |  |  |  |  | % Residual activity PI & II, final conc. 1 mM (PI & II [1]; pH 2.8, 10 min preincubation): 102.2%; effect of inhibitor on PIII (PIII [2]): inhibited; % Residual activity PIII, final conc. 1 mM (PIII [2]; pH 2.8, 10 min preincubation): 53.5% |
| Urokinase | 7.5-7.6 |  |  |  |  |  |
| [Pb+2] [Pb++] |  | 99.7 | 214.0 | 96.9 | 250.7 | effect of metal ion on PIII (PIII [5]): didn't inhibit; PIII activity detected, addition order of buffer and inhibitor solution reversed (PIII [5]; reversed addition order): 20.7% |
| CCCC[C@H](NC(=O)C=[N+]=[N-])C(=O)OC [DNME, diazoacetylnorleucine methyl ester] |  |  |  |  |  | % Residual activity PI & II, final conc. 1 mM (PI & II [1]; pH 2.8, 10 min preincubation): 100.0%; effect of DNME on PI&II in the presence of cupric ions (PI & II [1]; with cupric ions, up to 4 hours of preincubation): not sensitive; effect of inhibitor on PIII (PIII [2]): very sensitive; % Residual activity PIII, final conc. 1 mM (PIII [2]; pH 2.8, 10 min preincubation): 64.9% |
| [Zn+2] [Zn++] |  | 90.4 | 194.0 | 103.1 | 266.7 |  |
| Cathepsin D: mammalian carboxyl proteinase, literature comparator | 2.8-5.0 |  |  |  |  | Activators, mammalian cathepsins ([3]; Table 11, literature): none; Temperature optima, mammalian cathepsins ([3]; Table 11, literature): 45 °C; pH optima hemoglobin, mammalian cathepsins ([3]; Table 11, literature): 2.8-3.5; pH stability, mammalian cathepsins ([3]; unstable at pH > 7, literature): unstable |
| cathepsin L: thiol proteinase, liver | 5.0-5.5 |  |  |  |  |  |
| Cl.N[C@@H](CS)C(=O)O [Cysteine-HCl] |  |  |  |  |  | optimum concentration for stabilizing P2.2, reagent alone (P2.2 enzyme): 2.5 mM |
| [Mg+2] [Mg++] |  | 98.5 | 211.4 | 98.2 | 254.0 |  |
| Elastase | 8.2-8.5 |  |  |  |  |  |
| B1 | 3.0 |  |  |  |  |  |
